The record followed here is PMC4319022 (The Journal of Biological Chemistry, 2014).

Like-named read-outs stand apart in the source and are kept apart here.

Assay [1] has as its target T1, human α7 nAChR (Homo sapiens, UniProt P36544).
T1 construct: gene CHRNA7; full-length subunit cDNA in pSP64GL, cRNA injected in Xenopus laevis oocytes, homopentamer
In words: two-electrode voltage clamp, Xenopus oocytes. Format: cell-based. An excerpt:
two-electrode voltage clamp, Xenopus oocytes on human α7 nAChR
For orientation: In two-electrode clamp one electrode senses voltage and the other passes current.

Assay [2] has as its target T1, human α7 nAChR. In words: two-electrode voltage clamp, Xenopus oocytes. Format: cell-based. This is another data set of the same source.

T1 sequence (P36544 23-502): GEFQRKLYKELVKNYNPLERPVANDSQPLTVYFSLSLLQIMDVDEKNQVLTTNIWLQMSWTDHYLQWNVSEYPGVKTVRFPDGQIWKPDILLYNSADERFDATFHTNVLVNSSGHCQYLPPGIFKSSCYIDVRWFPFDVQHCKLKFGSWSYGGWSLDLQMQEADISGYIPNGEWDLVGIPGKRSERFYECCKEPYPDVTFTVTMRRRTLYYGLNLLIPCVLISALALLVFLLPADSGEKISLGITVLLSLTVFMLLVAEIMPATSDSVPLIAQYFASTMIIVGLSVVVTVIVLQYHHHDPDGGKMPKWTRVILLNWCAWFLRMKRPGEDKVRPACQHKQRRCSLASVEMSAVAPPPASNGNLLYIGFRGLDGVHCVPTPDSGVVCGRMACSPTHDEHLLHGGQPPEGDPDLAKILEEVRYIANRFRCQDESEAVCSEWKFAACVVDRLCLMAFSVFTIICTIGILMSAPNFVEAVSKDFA

Consider `Cc1cccc(C2Nc3ccc(S(N)(=O)=O)cc3C3C=CCC32)c1` (stereo not drawn) [3MP-TQS, cis-cis-4-m-tolyl-3a,4,5,9b-tetrahydro-3H-cyclopenta[c]quinoline-8-sulfonamide], for which the Fold potentiation in assay [1] (allosteric potentiation (type II PAM) of 100 μM acetylcholine, maximal PAM concentration (100 μM, Figure 4), -60 mV) is 22 ± 2.1 fold.

For `Cc1ccc(C2Nc3ccc(S(N)(=O)=O)cc3C3C=CCC32)cc1` (stereo not drawn) [4MP-TQS, cis-cis-4-p-tolyl-3a,4,5,9b-tetrahydro-3H-cyclopenta[c]quinoline-8-sulfonamide], the EC50 in assay [1] (read-out: EC50) was 27 ± 3.1 µM.

Regarding `Cc1c(C)c(C)c(C2Nc3ccc(S(N)(=O)=O)cc3C3C=CCC32)c(C)c1C` (stereo not drawn) [PentaMP-TQS, cis-trans-4-(2,3,4,5,6-pentamethylphenyl)-3a,4,5,9b-tetrahydro-3H-cyclopenta[c]quinoline-8-sulfonamide], the EC50 in assay [1] (allosteric potentiation (type I PAM) of 100 μM acetylcholine, 10 s preapplication, -60 mV, bell-shaped curve, unreliable) came to 0.55 ± 0.36 µM.

For `Cc1cc(C)c(C2Nc3ccc(S(N)(=O)=O)cc3C3C=CCC32)c(C)c1` (stereo not drawn) [2,4,6MP-TQS, cis-trans-4-mesityl-3a,4,5,9b-tetrahydro-3H-cyclopenta[c]quinoline-8-sulfonamide], the IC50 in assay [2] amounted to 5.2 ± 0.8 µM.

Turning to `Cc1cc(C)c(C)c(C2Nc3ccc(S(N)(=O)=O)cc3C3C=CCC32)c1` (stereo not drawn) [2,3,5MP-TQS, cis-cis-4-(2,3,5-trimethylphenyl)-3a,4,5,9b-tetrahydro-3H-cyclopenta[c]quinoline-8-sulfonamide], the EC50 in assay [1] (read-out: EC50) came out at 3.9 ± 0.7 µM.

For `Cc1cc(C)c(C2Nc3ccc(S(N)(=O)=O)cc3C3C=CCC32)c(C)c1C` (stereo not drawn) [2,3,4,6MP-TQS, cis-trans-4-(2,3,4,6-tetramethylphenyl)-3a,4,5,9b-tetrahydro-3H-cyclopenta[c]quinoline-8-sulfonamide], in assay [1] (read-out: EC50), the EC50 stood at 9.1 ± 2 µM.

The compound `Cc1cccc(C)c1C1Nc2ccc(S(N)(=O)=O)cc2C2C=CCC21` (stereo not drawn) [2,6MP-TQS, cis-trans-4-(2,6-dimethylphenyl)-3a,4,5,9b-tetrahydro-3H-cyclopenta[c]quinoline-8-sulfonamide] came in with an IC50 in assay [2] of 43 ± 14 µM.

`Cc1ccc(C2Nc3ccc(S(N)(=O)=O)cc3C3C=CCC32)c(C)c1` (stereo not drawn) [2,4MP-TQS, cis-cis-4-(2,4-dimethylphenyl)-3a,4,5,9b-tetrahydro-3H-cyclopenta[c]quinoline-8-sulfonamide]: in assay [1] (read-out: EC50), the EC50 is 11 ± 1 µM.

As for `Cc1ccc(C2Nc3ccc(S(N)(=O)=O)cc3C3C=CCC32)cc1C` (stereo not drawn) [3,4MP-TQS, cis-cis-4-(3,4-dimethylphenyl)-3a,4,5,9b-tetrahydro-3H-cyclopenta[c]quinoline-8-sulfonamide], the Imax in assay [1] (100 μM, allosteric agonist, relative to 3 mM acetylcholine, -60 mV) worked out at 7.8 ± 3.0 fold effect.

For the compound `Cc1cc(C)cc(C2Nc3ccc(S(N)(=O)=O)cc3C3C=CCC32)c1` (stereo not drawn) [3,5MP-TQS, cis-cis-4-(3,5-dimethylphenyl)-3a,4,5,9b-tetrahydro-3H-cyclopenta[c]quinoline-8-sulfonamide], in assay [1] (read-out: EC50), the EC50 turned out to be 3.7 ± 1.2 µM.

For `Cc1ccccc1C1Nc2ccc(S(N)(=O)=O)cc2C2C=CCC21` (stereo not drawn) [2MP-TQS, cis-cis-4-o-tolyl-3a,4,5,9b-tetrahydro-3H-cyclopenta[c]quinoline-8-sulfonamide], the concentration giving a half-maximal response (EC50) in assay [1] (read-out: EC50) was 16 ± 1.3 µM.

In turn, `Cc1ccc(C)c(C2Nc3ccc(S(N)(=O)=O)cc3C3C=CCC32)c1C` (stereo not drawn) [2,3,6MP-TQS, cis-trans-4-(2,3,6-trimethylphenyl)-3a,4,5,9b-tetrahydro-3H-cyclopenta[c]quinoline-8-sulfonamide] gave an IC50 in assay [2] of 23 ± 2.8 µM.

In the case of `Cc1ccc(C2Nc3ccc(S(N)(=O)=O)cc3C3C=CCC32)c(C)c1C` (stereo not drawn) [2,3,4MP-TQS, cis-cis-4-(2,3,4-trimethylphenyl)-3a,4,5,9b-tetrahydro-3H-cyclopenta[c]quinoline-8-sulfonamide], the EC50 in assay [1] (read-out: EC50) turned out to be 9.8 ± 0.8 µM.

As usually defined, the EC50 is the concentration needed to bring the measured effect to its halfway point. One may read the IC50 as the concentration that inhibits the measured activity by half.
